From patent publication US10280171B2, “Heterocyclic inhibitors of PTPN11” (priority 2016, dated 2019) come the findings set out here.

Assay [1] concerns the target PTPN11-E76K mutant enzyme (Homo sapiens (Human), UniProt Q06124, E76K). The experiment in a line: PTPN11 Enzymatic Assay (DiFMUP phosphatase activity). The assay is classed as biochemical. Conditions: full length PTPN11-E76K mutant enzyme 250 pM, DiFMUP 50 μM, 30 min preincubation; read-out: PTPN11-E76K Avg IC50. As for the experimental part:
Reaction was initiated by addition of DiFMUP (50 μM) at room temperature in 384-well black plate with a final reaction volume of 20 uL in assay buffer. […] Dose-response curves were analyzed using IC50 regression curve fitting (GeneData Screener). Curves were normalized to a high controls without inhibitor, and low controls without enzyme.

The test system of assay [2] is Phospho-ERK levels in KYSE-520 cells. The experiment in a line: pERK AlphaScreen Protocol. Conditions: KYSE-520 cells, 2 hr compound incubation, phospho-ERK1/2 AlphaScreen SureFire, read-out: PERK Avg IC50. The assay is classed as cell-based. As for the experimental part:
KYSE-520 cells (10 k cells/well) were grown in 384-well plate in 20 uL of medium (RPMI-1640, without phenol red, containing 10% FBS) at 37° C. with 5% CO2 overnight. DMSO (control) or increasing concentrations of compounds were diluted in medium, added to the 384-well plate (5 uL/well, final DMSO concentration of 1%), and cells were then incubated with compounds for 2 hr. Phospho-ERK levels were measured using phospho-ERK1/2 AlphaScreen SureFire (PerkinElmer, TGRESB10K) following manufacturer's recommendations. Dose-response curves were analyzed using IC50 regression curve fitting (GeneData Screener). Curves were normalized to a high control without inhibitor (DMSO only), and low control (1 μM selumetinib).
In general terms: Bead proximity is the source of the signal in Alpha formats.

Where two headings read alike, the source gives them in different places.

Chain of PTPN11-E76K mutant enzyme (Q06124 whole entry E76K): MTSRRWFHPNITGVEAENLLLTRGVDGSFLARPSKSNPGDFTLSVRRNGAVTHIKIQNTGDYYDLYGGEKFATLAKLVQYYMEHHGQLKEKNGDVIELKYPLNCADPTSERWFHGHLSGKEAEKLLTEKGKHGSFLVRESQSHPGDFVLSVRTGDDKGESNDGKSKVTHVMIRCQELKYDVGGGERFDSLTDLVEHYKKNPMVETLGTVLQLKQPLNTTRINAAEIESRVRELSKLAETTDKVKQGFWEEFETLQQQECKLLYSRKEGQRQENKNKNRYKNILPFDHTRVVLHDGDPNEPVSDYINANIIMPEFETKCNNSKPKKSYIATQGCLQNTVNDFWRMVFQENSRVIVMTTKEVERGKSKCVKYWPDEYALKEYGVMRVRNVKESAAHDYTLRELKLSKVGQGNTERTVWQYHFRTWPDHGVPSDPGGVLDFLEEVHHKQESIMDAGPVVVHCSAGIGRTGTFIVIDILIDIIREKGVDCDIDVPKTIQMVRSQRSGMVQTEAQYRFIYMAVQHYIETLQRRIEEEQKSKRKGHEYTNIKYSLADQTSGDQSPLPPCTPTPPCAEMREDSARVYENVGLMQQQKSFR

Broadly, the IC50 is the concentration needed to halve the response being measured. As for `N[C@@H]1COCC12CCN(c1cnc3c(-c4ccnc(O)c4Cl)n[nH]c3n1)CC2` [Example 109, (S)-4-(6-(4-Amino-2-oxa-8-azaspiro[4.5]decan-8-yl)-1H-pyrazolo[3,4-b]pyrazin-3-yl)-3-chloropyridin-2-ol], the 50% inhibitory concentration (IC50) is 1100 nM in assay [1] and 10000 nM in assay [2] (Homo sapiens, KYSE-520, 2 h). In the case of `N[C@@H]1CCCC12CCN(c1cnc3c(-c4ccccc4Cl)n[nH]c3n1)CC2` [Example 54, (R)-8-(3-(2-chlorophenyl)-1H-pyrazolo[3,4-b]-pyrazin-6-yl)-8-aza-spiro[4.5]decan-1-amine], the IC50 in assay [1] is 119 nM; in assay [2] (Homo sapiens, KYSE-520, 2 h), 64 nM. For `N[C@@H]1CCCC12CCN(c1cnc3c(-c4cc(Cl)cc(Cl)c4)n[nH]c3n1)CC2` [Example 45, (R)-8-(3-(3,5-dichloro-phenyl)-1H-pyrazolo[3,4-b]-pyrazin-6-yl)-8-aza-spiro[4.5]decan-1-amine], in that order: 355 nM and 1420 nM.

Turning to `NCC1(O)CCN(c2cnc3c(-c4cc(N)ncc4Cl)n[nH]c3n2)CC1` [Example 134, 1-[3-(2-amino-5-chloropyridin-4-yl)-1H-pyrazolo[3,4-b]-pyrazin-6-yl]-4-(aminomethyl)-piperidin-4-ol], the IC50 was found to be 1530 nM in assay [1] and 2010 nM in assay [2] (Homo sapiens, KYSE-520, 2 h). In the case of `N[C@@H]1CCCC12CCN(c1cnc3c(-c4cn[nH]c4C(F)(F)F)n[nH]c3n1)CC2` [Example 102, (R)-8-(3-(5-(Trifluoromethyl)-1H-pyrazol-4-yl)-1H-pyrazolo[3,4-b]pyrazin-6-yl)-8-azaspiro[4.5]decan-1-amine], the IC50 in assay [1] stood at 2150 nM; in assay [2] (Homo sapiens, KYSE-520, 2 h), 1180 nM. For `CC(N)C1(C)CCN(c2cnc3c(-c4ccnc(N)c4Cl)n[nH]c3n2)CC1` (single isomer, unassigned) [Example 113a, 4-(6-(4-(1-Aminoethyl)-4-methylpiperidin-1-yl)-1H-pyrazolo[3,4-b]pyrazin-3-yl)-3-chloropyridin-2-amine], in that order: 180 nM and 100 nM. Regarding `CC1(N)CCN(c2cnc3c(-c4c(F)cccc4Cl)n[nH]c3n2)CC1` [Example 32, 1-(3-(2-chloro-6-fluorophenyl)-1H-pyrazolo[3,4-b]-pyrazin-6-yl)-4-methylpiperidin-4-amine], in assay [2] (Homo sapiens, KYSE-520, 2 h), the IC50 worked out at 284 nM.

In the case of `Nc1nccc(-c2n[nH]c3nc(N4CCC5(CCC5N)CC4)cnc23)c1Cl` (single isomer, unassigned; enantiomer 1) [Example 136a, 7-[3-(2-amino-3-chloropyridine-4-yl)-1H-pyrazolo[3,4-b]-pyrazin-6-yl]-7-aza-spiro[3.5]nonan-1-amine, enantiomer 1], the IC50 in assay [2] (Homo sapiens, KYSE-520, 2 h) was determined as 2270 nM. For the compound `NCC1(O)CCN(c2cnc3c(-c4cccc(Cl)c4Cl)n[nH]c3n2)CC1` [Example 8, 4-(aminomethyl)-1-(3-(2,3-dichloro-phenyl)-1H-pyrazolo[3,4-b]-pyrazin-6-yl)-piperidin-4-ol], the concentration for half-maximal inhibition (IC50) in assay [1] was 204 nM; in assay [2] (Homo sapiens, KYSE-520, 2 h), 86 nM. In the case of `CC1(CN)CCN(c2cnc3c(-c4cccnc4Cl)n[nH]c3n2)CC1` [Example 36, (1-(3-(2-chloro-pyridin-3-yl)-1H-pyrazolo[3,4-b]-pyrazin-6-yl)-4-methylpiperidin-4-yl) methanamine], the IC50 in assay [1] came out at 967 nM; in assay [2] (Homo sapiens, KYSE-520, 2 h) it was 320 nM. As for `NC1(CO)CCN(c2cnc3c(-c4cccc(F)c4Cl)n[nH]c3n2)CC1` [Example 62, (4-amino-1-(3-(2-chloro-3-fluoro-phenyl)-1H-pyrazolo[3,4-b]-pyrazin-6-yl)-piperidin-4-yl)-methanol], the IC50 in assay [2] (Homo sapiens, KYSE-520, 2 h) turned out to be 310 nM. As for `Nc1nccc(-c2n[nH]c3nc(N4CCC5(CCC5N)CC4)cnc23)c1Cl` (stereo not shown) [Example 115, 7-(3-(2-Amino-3-chloropyridin-4-yl)-1H-pyrazolo[3,4-b]pyrazin-6-yl)-7-azaspiro[3.5]nonan-1-amine], the IC50 in assay [2] (Homo sapiens, KYSE-520, 2 h) was 427 nM. Turning to `COc1cccc(-c2n[nH]c3nc(N4CCC5(CCC[C@H]5N)CC4)cnc23)c1Cl` [Example 50, (R)-8-(3-(2-chloro-3-methoxyphenyl)-1H-pyrazolo[3,4-b]pyrazin-6-yl)-8-azaspiro[4.5]decan-1-amine], the IC50 in assay [1] was determined as 39 nM; in assay [2] (Homo sapiens, KYSE-520, 2 h) it was 34 nM.

On to `Cc1c(-c2n[nH]c3nc(N4CCC(C)(CN)CC4)cnc23)ccnc1N` [Example 124, 4-(6-(4-(Aminomethyl)-4-methylpiperidin-1-yl)-1H-pyrazolo[3,4-b]pyrazin-3-yl)-3-methylpyridin-2-amine], for which the half-maximal inhibitory concentration (IC50) in assay [1] worked out at 377 nM. In the case of `CC1(CN)CCN(c2cnc3c(-c4ccc(Cl)c(Cl)c4)n[nH]c3n2)CC1` [Example 13, (1-(3-(3,4-dichloro-phenyl)-1H-pyrazolo[3,4-b]-pyrazin-6-yl)-4-methylpiperidin-4-yl) methanamine], the IC50 was determined as 158 nM in assay [1] and 562 nM in assay [2] (Homo sapiens, KYSE-520, 2 h).

Take `Cc1c(-c2n[nH]c3nc(N4CCC5(CCC[C@H]5N)CC4)cnc23)ccnc1N` [Example 122, (R)-8-(3-(2-amino-3-methylpyridin-4-yl)-1H-pyrazolo[3,4-b]pyrazin-6-yl)-8-azaspiro[4.5]decan-1-amine]: the IC50 in assay [1] was 205 nM. Still for that read-out and setting: in the case of `Cc1c(Cl)cccc1-c1n[nH]c2nc(N3CCC4(CCC[C@H]4N)CC3)cnc12` [Example 51, (R)-8-(3-(3-chloro-2-methylphenyl)-1H-pyrazolo[3,4-b]pyrazin-6-yl)-8-azaspiro[4.5]decan-1-amine] it was 153 nM. With `NCC1(O)CCN(c2cnc3c(-c4c(F)cccc4Cl)n[nH]c3n2)CC1` [Example 63, 4-(aminomethyl)-1-(3-(2-chloro-6-fluorophenyl)-1H-pyrazolo [3,4-b]-pyrazin-6-yl)-piperidin-4-ol], the IC50 in assay [2] (Homo sapiens, KYSE-520, 2 h) turned out to be 687 nM.

For `Cc1c(-c2n[nH]c3nc(N4CCC(C)(N)CC4)cnc23)ccnc1N` [Example 123, 4-(6-(4-amino-4-methylpiperidin-1-yl)-1H-pyrazolo[3,4-b]pyrazin-3-yl)-3-methylpyridin-2-amine], in assay [1], the IC50 is 670 nM. Still for that read-out and setting: in the case of `Nc1nccc(-c2n[nH]c3nc(N4CCC5(CC4)C[C@H](O)C[C@H]5N)cnc23)c1Cl` [Example 126, (2S,4R)-4-Amino-8-(3-(2-amino-3-chloropyridin-4-yl)-1H-pyrazolo[3,4-b]pyrazin-6-yl)-8-azaspiro[4.5]decan-2-ol] it was 75 nM. `N[C@@H]1COCC12CCN(c1cnc3c(-c4cccc(F)c4Cl)n[nH]c3n1)CC2` [Example 42, (S)-8-(3-(2-chloro-3-fluorophenyl)-1H-pyrazolo[3,4-b]-pyrazin-6-yl)-2-oxa-8-azaspiro[4.5]-decan-4-amine]: the IC50 in assay [2] (Homo sapiens, KYSE-520, 2 h) worked out at 63 nM.

For `N[C@@H]1CCCC12CCN(c1cnc3c(-c4ccc(Cl)c(Cl)c4)n[nH]c3n1)CC2` [Example 46, (R)-8-(3-(3,4-dichloro-phenyl)-1H-pyrazolo[3,4-b]-pyrazin-6-yl)-8-aza-spiro[4.5]decan-1-amine], in assay [2] (Homo sapiens, KYSE-520, 2 h), the IC50 came out at 666 nM. On to `N[C@@H]1COCC12CCN(c1cnc3c(-c4cccc(Cl)c4Cl)n[nH]c3n1)CC2` [Example 38, (S)-8-(3-(2,3-Dichlorophenyl)-1H-pyrazolo[3,4-b]pyrazin-6-yl)-2-oxa-8-azaspiro[4.5]-decan-4-amine], for which the IC50 in assay [2] (Homo sapiens, KYSE-520, 2 h) turned out to be 40 nM. For `N[C@@H]1CCCC12CCN(c1cnc3c(-c4cccnc4Cl)n[nH]c3n1)CC2` [Example 53, (R)-8-(3-(2-chloro-pyridin-3-yl)-1H-pyrazolo[3,4-b]-pyrazin-6-yl)-8-aza-spiro[4.5]decan-1-amine], in assay [2] (Homo sapiens, KYSE-520, 2 h), the IC50 came out at 224 nM.

Consider `Nc1nccc(-c2n[nH]c3nc(N4CCC5(CCC5N)CC4)cnc23)c1Cl` (single isomer, unassigned; enantiomer 2) [Example 136b, 7-[3-(2-amino-3-chloropyridin-4-yl)-1H-pyrazolo-[3,4-b]-pyrazin-6-yl]-7-aza-spiro[3.5]nonan-1-amine, enantiomer 2], for which, in assay [2], the IC50 is 1960 nM. In the case of `COc1cc(Cl)cc(-c2n[nH]c3nc(N4CCC5(CCC[C@H]5N)CC4)cnc23)c1` [Example 52, (R)-8-(3-(3-chloro-5-methoxyphenyl)-1H-pyrazolo[3,4-b]pyrazin-6-yl)-8-azaspiro[4.5]decan-1-amine], in assay [1], the IC50 was 313 nM. Same read-out and setting: next, `CC1(N)CCN(c2cnc3c(-c4cccc(Cl)c4F)n[nH]c3n2)CC1` [Example 26, 1-(3-(3-chloro-2-fluorophenyl)-1H-pyrazolo[3,4-b]-pyrazin-6-yl)-4-methylpiperidin-4-amine]: 213 nM; `COc1cc(-c2n[nH]c3nc(N4CCC5(CCC[C@H]5N)CC4)cnc23)ccc1Cl` [Example 34, (R)-8-(3-(4-chloro-3-methoxyphenyl)-1H-pyrazolo[3,4-b]-pyrazin-6-yl)-8-aza-spiro[4.5]decan-1-amine]: 102 nM.

For `CNc1nccc(-c2n[nH]c3nc(N4CCC(C)(N)CC4)cnc23)c1Cl` [Example 112, 4-(6-(4-Amino-4-methylpiperidin-1-yl)-1H-pyrazolo[3,4-b]pyrazin-3-yl)-3-chloro-N-methylpyridin-2-amine], the IC50 in assay [2] (Homo sapiens, KYSE-520, 2 h) amounted to 58 nM. Same read-out and setting: next, `NC1(CO)CCN(c2cnc3c(-c4cccnc4Cl)n[nH]c3n2)CC1` [Example 59, (4-amino-1-(3-(2-chloropyridin-3-yl)-1H-pyrazolo[3,4-b]pyrazin-6-yl)-piperidin-4-yl)-methanol]: 1040 nM.
